Results reported in patent publication US9757408B2 (Hayashibara Co., Ltd., priority 2010, dated 2017).

Key:
[1] = system: TNF-α production from mouse intraperitoneal macrophages; experiment: TNF-α production from mouse intraperitoneal macrophages, LPS + IFN-γ, ELISA (Experiment 2); type: cell-based; conditions: for TNF-α Concentration: LPS 2 μg/mL, IFN-γ 10 IU/mL
Method: The resulting cell suspension was added to a dish for tissue culture (product code: 353003, commercialized by Becton Drive Franklin Lakes, N.J., USA), and incubated in a 5% v/v CO2 incubator at 37° C. for 1.5 hours to attach the peritoneal exudate macrophages on the surface of the dish.
TNF-α in each collected supernatant was assayed with enzyme-linked immunosorbent assay (ELISA) (Experiment groups 2 to 5). […] The results are in Table 2 in parallel. The test for each Experiment group was conducted by using three wells. The assay for TNF-α was conducted on an ELISA using a commercialized rat anti-mouse TNF-α antibody (“Rat anti-mouse/rat TNF antibody” (product code: 551225), a product name of Becton Drive Franklin Lakes, N.J., USA) as a solid phase antibody; a commercialized biotin-labeled rat anti-mouse TNF-α antibody (“Biotin-Labeled Rat Anti-Mouse TNF Antibody”, product code: 554415, commercialized by Becton Drive Franklin Lakes, N.J., USA) as a secondary antibody; and an HRPO-labeled streptavidin.

[2] = system: mouse intraperitoneal macrophages; experiment: Cell viability of mouse intraperitoneal macrophages, AlamarBlue (Experiment 2); type: cell-based; conditions: LPS 2 μg/mL, IFN-γ 10 IU/mL, control = 100%
[3] = system: mice with bacterial shock induced by LPS; experiment: LPS bacterial shock mice, survival, ANO i.v. one hour after LPS (Experiment 8); type: in vivo, BALB/c mice; conditions: LPS 18 mg/kg i.p., ANO 135 mg/kg i.v. at one hour after LPS
Method: An LPS specimen derived from E. coli ([…]), commercialized by Sigma-Aldrich Corporation, St. Louis, Mo. USA, was dissolved in PBS and intraperitoneally administered to all the seven mice in each group at a dose of 18 mg/kg body weight of LPS. […] For each group, the survival number of mice was confirmed up to 7 to 27 hours after administering LPS and determined the survival rate (%) of mice in each group.

NHDF cells = experiment: Cell survival rate of NHDF cells after hydrogen peroxide oxidant stress (Experiment 18); type: cell-based, human
Method: To the wells, which had not been treated with hydrogen peroxide, was added 100 μL/well of Hanks' solution. […] Thereafter, the supernatant in each well was removed by sucking, and “CELL COUNTING KIT-8”, a product name of a reagent solution for counting viable cells, commercialized by Dojindo Molecular Technologies, Inc., Kumamoto, Japan, which had been diluted with D-MEM medium supplemented with 10% FCS by 20-times, was added to the wells in an amount of 100 μL/well, followed by incubating the cells in a 5% v/v CO2 incubator at 37° C. for two hours. Finally, the microplates were measured for absorbance at a wavelength of 450 nm on a plate reader. For each well, a relative absorption value was determined when the absorbance of a well of NHDF cells, which had been cultured by the addition of only medium, was regarded as 100, and it is expressed as a cell survival rate (%) in Table 21.

[4] = system: skin of volunteers irradiated with ultraviolet rays; experiment: Volunteer test of creams: pigmentation (visual score, melanin index) after ultraviolet rays; type: in vivo, human; conditions: cream thrice a day for 28 days
Method: Melanin index was measured on “CM-700d”, a spectrophotometer commercialized by Konica Minolta Holdings, Inc., Tokyo, Japan.
In was confirmed that there were no spots and wounds in the inside of the left upper arm in each volunteer. On the day of initiating the test, four sites in the test part of each volunteer were irradiated with 1.5-times of the minimum erythemogenic dose of ultraviolet rays (UVB). The area of the irradiated site was in the range of 1×1 cm applied with each test sample. […]
From the day of initiating the irradiation of ultraviolet rays until seven days after the initiation, the test parts were visually observed and photographed by a digital camera every day, and the day, on which the erythema in the part irradiated with ultraviolet rays become unobserved, was confirmed and the days until the unobserved day for each creams were averaged and shown in Table 26. At 24 hours after the irradiation of ultraviolet rays, the degree of erythema in the part applied with each cream was scored based on the three grades of “strong (2)”, “no difference (0)”, and “weak (−2)” compared to the part applied with Cream 3, summed up the scores for each cream, and averaged. […] On 28 days after initiating the irradiation of ultraviolet rays, visual judgement on the part irradiated with ultraviolet rays and the melanin index were measured to confirm the degree of pigmentation. […]

In the case of `Nc1c2ncn([C@@H]3O[C@H](CO)[C@@H](O)[C@H]3O)c2nc[n+]1[O-]` [ANO, adenosine N1-oxide], the “TNF-α Concentration” value ([1]; ANO 0.006 μM) is reported as 1573 pg/mL, the “TNF-α Concentration” value ([1]; ANO 0.031 μM) is reported as 1637 pg/mL and the “TNF-α Concentration” value ([1]; ANO 0.063 μM) is reported as 1136 pg/mL. For the same molecule, the “TNF-α Concentration” value ([1]; ANO 0.313 μM) was 545 pg/mL, the “concentration range in which the production of TNF-α was significantly inhibited” value ([1]; mouse intraperitoneal macrophages, LPS and IFN-γ) was at least 0.063 µM and the Cell viability ([2]; ANO 0.006 μM) was 100%. The Cell viability ([2]; ANO 0.031 μM) was 100%, the Cell viability ([2]; ANO 0.063 μM) was 100% and the Cell viability ([2]; ANO 0.313 μM) was 100%. For the same molecule, the “Survival rate (%) of mice, 7 Hours” value ([3]; 7 hours) was 100%, the “Survival rate (%) of mice, 22 Hours” value ([3]; 22 hours) was 86% and the “Survival rate (%) of mice, 27 Hours” value ([3]; 27 hours) was 57%. It also gave a Cell survival rate (NHDF cells; addition of hydrogen peroxide: No, 3.12 μM) of 100%, a Cell survival rate (NHDF cells; addition of hydrogen peroxide: No, 6.25 μM) of 100% and a Cell survival rate (NHDF cells; addition of hydrogen peroxide: No, 12.5 μM) of 100%. It also gave a Cell survival rate (NHDF cells; addition of hydrogen peroxide: No, 25.0 μM) of 100%, a Cell survival rate (NHDF cells; addition of hydrogen peroxide: Yes, 3.1 μM) of 35% and a Cell survival rate (NHDF cells; addition of hydrogen peroxide: Yes, 6.3 μM) of 81%. For the same molecule, the Cell survival rate (NHDF cells; addition of hydrogen peroxide: Yes, 12.5 μM) was 83%, the Cell survival rate (NHDF cells; addition of hydrogen peroxide: Yes, 25.0 μM) was 89% and the “influence on the cell survival rate without hydrogen peroxide” value (NHDF cells; concentrations used in this experiment (Experiment groups 7 to 10)) was “No influence”. For the same molecule, the Cell survival rate (NHDF cells; hydrogen peroxide 200 μM, then ANO 25 μM for 24 hours, medium only = 100) was 89% and the “safeness when applied to the skin (red flare, eczema)” value [4] was “induced no red flare, eczema, etc”.
